The test system of test [1] is STC-1 cells. Put plainly: Change in Ca2+ level in STC-1 cells after inhibitor pretreatment (RR, HC-030031, TPPO, U-73122). In kind it is cell-based. The settings on record: 0.1 mM. The protocol: (§1) The cells were inoculated onto a poly-D-Lysine-coated black 96-well clear-bottom plate (Thermo) at a concentration of 8.0×10^4 cells/well and incubated under the condition of 37° C. and 5% CO2. 72 hours later, the cells were incubated at 37° C. for 60 minutes using the Calcium-5 assay kit (Molecular Devices) and the change in Ca^2+ level was measured using Flexstation III. The change in Ca^2+ level was monitored for about 120 seconds at fluorescence wavelengths of 488 nm (ex) and 525 nm (em) and for 2 seconds after injecting the compound for 20 seconds.
The STC-1 cells were pretreated for 60 minutes with 100 μM ruthenium red (RR) or with 50 μM HC-030031. Then, the cells were treated with 1 mg/mL of the extract.
The STC-1 cells were pretreated for 60 minutes with 400 μM TPPO or with 20 μM U-73122.
Then, the cells were treated with 1 mg/mL of the extract.
The STC-1 cells were pretreated for 60 minutes with 100 μM ruthenium red or with 50 μM HC-030031. Then, the cells were treated with 1 mg/mL of the extract.
The STC-1 cells were pretreated for 60 minutes with 400 μM TPPO or with 20 μM U-73122. Then, the cells were treated with 1 mg/mL of the extract.

Test [2] concerns STC-1 cells. Put plainly: CCK secretion in STC-1 cells after inhibitor pretreatment (RR, HC-030031, TPPO, U-73122). In kind it is cell-based. Conditions: 0.1 mM. Here is the method: The cultured cells were inoculated onto a 24-well plate at a concentration of 2×10^5 cells/well and incubated under the condition of 37° C. and 5% CO2. 72 hours later, the cells were washed 2 times with HEPES buffer (4.5 mM KCl, 1.2 mM CaCl2, 1.2 mM MgCl2, 10 mM glucose, 140 mM NaCl, 20 mM HEPES-Tris, pH 7.4) and then incubated at 37° C. for 60 minutes after adding the test substance to the HEPES buffer. After the incubation, the medium was centrifuged at 10000 rpm for 10 minutes and the resultant supernatant was stored at −70° C. for use in analysis. An enzyme immunoassay (EIA) kit (Phoenix Pharmaceuticals Inc., Belmont Calif.) was used.
The STC-1 cells were pretreated for 30 minutes with 100 μM ruthenium red (RR) or with 50 μM HC-030031. After adding 50 μg/mL of the extract, the cells were incubated at 37° C. for 60 minutes.
The STC-1 cells were pretreated for 30 minutes with 100 μM ruthenium red (RR) or with 50 μM HC-030031. After adding 500 μg/mL of the extract, the cells were incubated at 37° C. for 60 minutes.
The STC-1 cells were pretreated for 30 minutes with 400 μM TPPO or with 20 μM U-73122.
After adding 500 μg/mL of the extract, the cells were incubated at 37° C. for 60 minutes.
The STC-1 cells were pretreated for 30 minutes with 100 μM ruthenium red (RR) or with 50 μM HC-030031. Then, the cells were incubated at 37° C. for 60 minutes after adding 500 μg/mL of the extract.
Then, the cells were incubated at 37° C. for 60 minutes after adding 500 μg/mL of the extract.

Test [3] has as its system RIN14B cells. Put plainly: 5-HT secretion in RIN14B cells (Serotonin EIA). The class given is cell-based. The settings on record: 300 μM, 60 minutes. The protocol: RIN14B cells were cultured in RPMI medium 1640 containing 10% fetal bovine serum (FBS) and 1% penicillin-streptomycin in an incubator maintained at 37° C. and 5% CO2.
(§2) The cultured cells were inoculated onto a 24-well plate at a concentration of 2×10^5 cells/well and incubated under the condition of 37° C. and 5% CO2. 72 hours later, the cells were washed 2 times with 5-HT assay buffer (HBSS, 0.1% BSA, 1.25 mM CaCl2, 2 μM fluoxetine, pH 7.4) and then incubated at 37° C. for 60 minutes after adding the test substance to the 5-HT assay buffer. After the incubation, the medium was centrifuged at 10,000 rpm for 10 minutes and the resultant supernatant was stored at −70° C. for use in analysis. A Serotonin (EIA) kit (Enzo Life Sciences) was used.

For test [4], the system named is STC-1 cells. Put plainly: CCK secretion in STC-1 cells (EIA). In kind it is cell-based. Conditions: 60 minutes. The protocol: STC-1 cells were cultured in Dulbecco's modified Eagle's medium (DMEM) containing 10% fetal bovine serum (FBS) and 1% penicillin-streptomycin in an incubator maintained at 37° C. and 5% CO2. […] An enzyme immunoassay (EIA) kit (Phoenix Pharmaceuticals Inc., Belmont Calif.) was used.

Test [5] has as its system RIN14B cells. Put plainly: Change in Ca2+ level in RIN14B cells. The class given is cell-based. Here is the method: (§3) The cells were inoculated onto a black 96-well clear-bottom plate (Corning) at a concentration of 5.0×10^4 cells/well and incubated under the condition of 37° C. and 5% CO2. 48 hours later, the cells were incubated at 37° C. for 60 minutes using the Calcium-5 assay kit (Molecular Devices) and the change in Ca^2+ level was measured using Flexstation III. The change in Ca^2+ level was monitored for about 120 seconds at fluorescence wavelengths of 488 nm (ex) and 525 nm (em) and for 2 seconds after injecting the compound for 20 seconds.

Test [6] concerns RIN14B cells. Put plainly: 5-HT secretion in RIN14B cells after inhibitor pretreatment (RR, HC-030031). The settings on record: 300 μM. The class given is cell-based. The protocol:
as §2
The RIN14B cells were pretreated for 30 minutes with 100 μM ruthenium red (RR) or with 50 μM HC-030031. […]

Test [7] deals with STC-1 cells. Put plainly: Change in Ca2+ level in STC-1 cells. The class given is cell-based. The protocol:
as §1

In test [8] the test system is RIN14B cells. Put plainly: Change in Ca2+ level in RIN14B cells after inhibitor pretreatment (RR, HC-030031). In kind it is cell-based. Conditions: 300 μM. Here is the method:
as §3
The RIN14B cells were pretreated for 60 minutes with 100 μM ruthenium red (RR) or with 50 μM HC-030031. […]

Test [9] relates to STC-1 cells. Put plainly: Membrane potential change in STC-1 cells. In kind it is cell-based.
The subject of a further test is NCI-H716 cells. Put plainly: Intracellular cAMP in NCI-H716 cells (EIA). The class given is cell-based, Human. Conditions: 20 μM. Here is the method: The NCI-H716 cells were plated onto a 24-well culture plate at a concentration of 1×10^6 cells/mL and cultured for 3 days. On the day of the experiment, the cells were incubated with the sample in KRB buffer at 37° C. using a 5% CO2 incubator. After the incubation, the medium was removed and the cells were washed 3 times with KRB buffer. They were then incubated at 150 rpm at room temperature for 20 minutes after adding 0.5 mL of 0.1 N HCl. The incubated cells were then centrifuged at 1000 g for 10 minutes and the supernatant was analyzed by an enzyme immunoassay (EIA) using the cyclic AMP kit.

A further test has as its target T1, GPR119 (Homo sapiens, UniProt Q8TDV5).
T1 construct: The transfection of the cells with GPR119 siRNA leads to knockdown of the GPR119 gene; endogenous in cells; host or cells: NCI-H716 cells
T1 sequence (Q8TDV5 1-335): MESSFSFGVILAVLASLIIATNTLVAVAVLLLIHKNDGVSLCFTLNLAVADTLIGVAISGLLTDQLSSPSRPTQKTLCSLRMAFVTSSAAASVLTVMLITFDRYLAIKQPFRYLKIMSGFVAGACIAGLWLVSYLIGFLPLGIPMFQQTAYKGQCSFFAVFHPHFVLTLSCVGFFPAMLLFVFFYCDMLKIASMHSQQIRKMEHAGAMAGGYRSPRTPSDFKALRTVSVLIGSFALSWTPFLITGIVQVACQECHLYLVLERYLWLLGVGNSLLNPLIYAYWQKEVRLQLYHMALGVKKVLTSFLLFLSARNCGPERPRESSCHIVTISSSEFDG
Put plainly: GLP-1 secretion in NCI-H716 cells treated with GPR119 siRNA. In kind it is cell-based. The protocol: The NCI-H716 cells were cultured on a 96-well plate for 3 days to a concentration of 2×10^5 cells/mL. On the day of the experiment, the cells were washed with phosphate-buffered saline (PBS) and incubated at 37° C. for 1 hour in Krebs-Ringer bicarbonate buffer (KRB, 128.8 mmol/L NaCl, 4.8 mmol/L KCl, 1.2 mmol/L KH2PO4, 1.2 mmol/L MgSO4, 2.5 mmol/L CaCl2, 5 mmol/L NaHCO3, 10 mmol/L HEPES, 0.2% BSA, pH 7.4) to which the sample was added. Then, for GLP-1 assay, the supernatant (100 μL) was taken and analyzed using an active GLP-1 ELISA kit (EGLP-35K, Millipore). The concentration of GLP-1 was calculated GLP-1 standard (pmol/mL) and the result was expressed as fold of control by comparing the concentration of GLP-1 secreted by stimulation with the sample and the concentration of GLP-1 secreted by stimulation with a control substance.
siRNA sequence targeting human α-gustducin (GNAT3, accession no. NM 001102386, Dharmacon on-target SMARTpool siRNA reagent), GPR119 ([…]/GeneBank accession no. NM_176817) and non-target SMARTpool siRNA were purchased from Dharmacon (Lafayette, Colo.). The NCI-H716 cells were transfected with the siRNAs for 48 hours using the Neon™ transfection system (Invitrogen, Carlsbad, Calif.). Then, GLP-1 secretion and the concentrations of Ca^2+ and cAMP were measured.

Turning to `C=CCN=C=S` [AITC], the “Inhibition (%) of Ca^2+ change” value in the test on STC-1 cells [1] (HC-030031 50 μM) is listed as 83.50%; with STC-1 cells [1] (RR 100 μM), 93.14%; in the test with RIN14B cells [8] (HC-030031 50 μM), 70.31%; in the test with RIN14B cells [8] (RR 100 μM) it was 66.36%. The “Change in Ca^2+ level, ΔRFU (mean ± S.E.M.)” value in the test on STC-1 cells [1] (inhibitor: Untreated) is listed as 400.52 ± 6.90 ΔRFU; in the test on STC-1 cells [1] (pretreated 50 μM HC-030031), 66.07 ± 2.56 ΔRFU; in the test on STC-1 cells [1] (pretreated 100 μM RR), 27.47 ± 1.77 ΔRFU; with RIN14B cells [5] (50 μM), 13.44 ± 1.78 ΔRFU; with RIN14B cells [5] (300 μM) it was 19.78 ± 4.08 ΔRFU; in the test on RIN14B cells [5] (500 μM), 22.17 ± 3.65 ΔRFU. For the same molecule, the “Change in Ca^2+ level, ΔRFU (mean ± S.E.M.)” value with STC-1 cells [7] (0.1 mM) is on record as 105.41 ± 2.12 ΔRFU; in the test with STC-1 cells [7] (1 mM), 151.04 ± 5.65 ΔRFU; in the test with STC-1 cells [7] (10 mM), 168.68 ± 5.79 ΔRFU; in the test on RIN14B cells [8] (inhibitor: Untreated) it was 13.42 ± 1.08 ΔRFU; in the test on RIN14B cells [8] (pretreated 50 μM HC-030031), 3.98 ± 0.80 ΔRFU; in the test on RIN14B cells [8] (pretreated 100 μM RR), 4.51 ± 1.40 ΔRFU. In addition, the “Inhibition (%) of CCK secretion” value stood at 52.58% in the test on STC-1 cells [2] (HC-030031 50 μM) and 73.21% with STC-1 cells [2] (RR 100 μM). The “CCK secretion, Fold of control (mean ± S.E.M.)” value is 22.56 ± 0.65 Fold of control in the test with STC-1 cells [2] (inhibitor: Untreated); 10.70 ± 0.92 Fold of control in the test on STC-1 cells [2] (pretreated 50 μM HC-030031); 6.04 ± 0.73 Fold of control in the test with STC-1 cells [2] (pretreated 100 μM RR); 21.57 ± 0.59 Fold of control with STC-1 cells [4] (0.1 mM); 21.99 ± 0.64 Fold of control in the test with STC-1 cells [4] (1 mM); 25.59 ± 0.59 Fold of control in the test on STC-1 cells [4] (10 mM). Also, the “5-HT secretion, Fold of control (mean ± S.E.M.)” value was 8.11 ± 2.70 Fold of control in the test with RIN14B cells [3], 8.11 ± 2.70 Fold of control in the test on RIN14B cells [6] (inhibitor: Untreated), 9.02 ± 6.37 Fold of control with RIN14B cells [6] (pretreated 50 μM HC-030031) and 3.60 ± 1.80 Fold of control in the test on RIN14B cells [6] (pretreated 100 μM RR). Further, the “Inhibition (%) of 5-HT secretion” value is −11.27% in the test on RIN14B cells [6] (HC-030031 50 μM) and 55.56% in the test with RIN14B cells [6] (RR 100 μM).

For `[Cl-].[K+]` [KCl], the figures for the “Membrane potential change, ΔRFU (mean ± SEM)” value with STC-1 cells [9] (0.1 mM), in the test on STC-1 cells [9] (1 mM) and in the test with STC-1 cells [9] (10 mM) were 17.01 ± 0.93 ΔRFU, 35.08 ± 3.43 ΔRFU and 270.08 ± 9.57 ΔRFU, respectively.

Take `CCCCCCCC/C=C\CCCCCCCC(=O)NCCO` [OEA (oleoylethanolamide), oleoylethanolamide]: the “cAMP (fold of control)” value in the test on NCI-H716 cells is given as 6.813 ± 1.634 fold of control. In addition, the “GLP-1 secretion (fold of control) GPR119 siRNA” value on GPR119 (20 μM, GPR119 siRNA) is 2.975 ± 0.241 fold of control. In addition, the “GLP-1 secretion (fold of control) Control siRNA” value on GPR119 (20 μM, control siRNA) was 4.822 ± 0.358 fold of control. The inhibition at 20 µM against GPR119 (NCI-H716) amounted to 38.3%.

A word on the inhibition: it is the drop in the measured response relative to a control, in per cent. Low values mean little suppression, high ones strong suppression.

The values are drawn from patent publication US10293009B2, “Pharmaceutical or food composition comprising Oldenlandia brachypoda, Spergularia marina, Disporum smilacinum, Persicaria posumbu, or Geum aleppicum” (KOREA FOOD RESEARCH INSTITUTE, priority 2012, dated 2019).
